Values quoted from earlier work in US20240011040A1, “SALICYLIC ACID-INDUCIBLE GENE EXPRESSION COMPOSITIONS AND SYSTEMS FOR CELLS” (UNIVERSITY OF HOUSTON SYSTEM, priority 2020, published 2024).

Tests used:
[1] = target: T1, Arabidopsis thaliana (At) NPR4 (Arabidopsis thaliana, UniProt Q5ICL9); settings: AtNPR4, high-affinity sensor of SA
T1 sequence (Q5ICL9 1-574): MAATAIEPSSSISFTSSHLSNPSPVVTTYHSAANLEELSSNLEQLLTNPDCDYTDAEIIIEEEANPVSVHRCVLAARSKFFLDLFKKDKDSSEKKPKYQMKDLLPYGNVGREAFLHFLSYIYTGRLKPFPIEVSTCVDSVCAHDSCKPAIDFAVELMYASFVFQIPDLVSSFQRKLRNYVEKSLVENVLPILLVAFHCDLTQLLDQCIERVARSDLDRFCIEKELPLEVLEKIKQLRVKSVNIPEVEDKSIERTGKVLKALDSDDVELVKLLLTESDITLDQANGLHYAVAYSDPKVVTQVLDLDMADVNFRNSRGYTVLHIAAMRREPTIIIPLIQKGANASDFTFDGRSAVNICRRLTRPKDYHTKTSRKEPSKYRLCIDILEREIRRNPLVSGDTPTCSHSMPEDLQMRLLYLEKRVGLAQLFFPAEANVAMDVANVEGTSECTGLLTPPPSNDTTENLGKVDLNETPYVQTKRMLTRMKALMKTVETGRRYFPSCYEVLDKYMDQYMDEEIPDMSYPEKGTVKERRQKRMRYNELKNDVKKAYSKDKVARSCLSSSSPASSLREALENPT

Kd [1] [nM]	Molecule	half-life in blood
24	O=C(O)c1ccccc1O [SA, salicylic acid]	–
–	EPO: glycoprotein cytokine secreted mainly by the kidney; stimulates red blood cell production	around 5 h
